Tested on: angiogenesis
Assay: Inhibition of angiogenesis: in vivo rat model, pellet with angiogenic material (VEGF) and MMP inhibitor, corneal neovascularization scored after one week
Details: pellet implant
Procedure: Inhibition of Angiogenesis
The activity of MMP inhibitors, preferably MMP-2 or MMP-9 inhibitors, for inhibiting angiogenesis can be determined according to the following in vivo rat model. A 10µg pellet containing an angiogenic material, such as vascular endothelial growth factor (VEGF) and a matrix metalloproteinase inhibitor or placebo, is implanted intraorbitally. After one week the eyes are removed and the degree of inhibition of angiogenesis is determined qualitatively. Inhibitors with IC50's of less than 10nm reduced angiogenesis. […]

| SMILES | % Response (10ng + VEGF) [%] | Corneal Neovascularization (#Positive Response/#Response) (10ng + VEGF) | % Response (25ng + VEGF) [%] | Corneal Neovascularization (#Positive Response/#Response) (25ng + VEGF) | % Response (50ng + VEGF) [%] | Corneal Neovascularization (#Positive Response/#Response) (50ng + VEGF) | % Response (100ng + VEGF) [%] | Corneal Neovascularization (#Positive Response/#Response) (100ng + VEGF) |
| --- | --- | --- | --- | --- | --- | --- | --- | --- |
| CC(C)(NS(=O)(=O)c1ccc(Oc2ccc(F)cc2)cc1)C(=O)NO [2-[4-(4-Fluoro-phenoxy)-benzenesulfonylamino]-N-hydroxy-2-methyl-propionamide] | 20 | 1/5 | 17 | 1/6 | 0 | 0/5 | 0 | 0/5 |
| O=C(NO)C1C2CCC(O2)C1S(=O)(=O)c1ccc(Oc2ccccc2)cc1 (stereo not drawn) [3-(4-Phenoxy-benzenesulfonyl)-7-oxa-bicyclo[2.2.1]heptane-2-carboxylic acid hydroxyamide] | 25 | 4/4 | 60 | 3/5 | 40 | 2/5 | 20 | 1/5 |
| O=C(O)CCN(C1(C(=O)NO)CCCC1)S(=O)(=O)c1ccc(Oc2ccc(F)cc2)cc1 [3-[[4-(4-Fluoro-phenoxy)-benzenesulfonyl]-(1-hydroxycarbamoyl-cyclopentyl)-amino]-propionic acid] | 25 | 1/4 | 17 | 1/6 | 0 | 0/5 | 0 | 0/5 |

— patent EP0930067A2, “MMP inhibitors for the treatment of ocular angiogenesis” (Pfizer Products Inc., priority 1997, dated 1999)
